Test results from US20130209543A1, “ENHANCED TREATMENT REGIMENS USING MTOR INHIBITORS” (Intellikine LLC, priority 2011, published 2013).
Read-outs that look alike come from different tables or passages of the source.

Legend:
Type in all cases: biochemical
PI3K δ = PI3K δ (Homo sapiens, UniProt O00329); assay: PI3K δ kinase assay
mTOR = molecular target: T1, mTOR (Homo sapiens, UniProt P42345); assay: mTOR kinase inhibition assay
T1 construct: purchased Invitrogen
Procedure: The compounds described herein and any other mTorC1/mTorC2 inhibitors known in the art can be tested against recombinant mTOR (Invitrogen) in an assay containing 50 mM HEPES, pH 7.5, 1 mM EGTA, 10 mM MgCl2, 2.5 mM, 0.01% Tween, 10 μM ATP (2.5 μCi of μ-32P-ATP), and 3 mg/mL BSA. Rat recombinant PHAS-1/4EBP1 (Calbiochem; 2 mg/mL) is used as a substrate. Reactions are terminated by spotting onto nitrocellulose, which is washed with 1M NaCl/1% phosphoric acid (approximately 6 times, 5-10 minutes each). Sheets are dried and the transferred radioactivity quantitated by phosphorimaging.
For instance, one can use Invitrogen's LanthaScreen™ Kinase assay to test the inhibitors of mTOR disclosed herein. This assay is a time resolved FRET platform that measures the phosphorylation of GFP labeled 4EBP1 by mTOR kinase. The kinase reaction is performed in a white 384 well microtitre plate. The total reaction volume is 20 μl per well and the reaction buffer composition is 50 mM HEPES pH7.5, 0.01% Polysorbate 20, 1 mM EGTA, 10 mM MnCl2, and 2 mM DTT. In the first step, each well receives 2 ul of test compound in 20% dimethylsulphoxide resulting in a 2% DMSO final concentration. Next, 8ul of mTOR diluted in reaction buffer is added per well for a 60 ng/ml final concentration. To start the reaction, 10 ul of an ATP/GFP-4EBP1 mixture (diluted in reaction buffer) is added per well for a final concentration of 10 μM ATP and 0.5 μM GFP-4EBP1. The plate is sealed and incubated for 1 hour at room temperature. […] The plate is sealed, incubated for 1 hour at room temperature, and then read on a plate reader set up for LanthaScreen™ TR-FRET. Data is analyzed and IC50s are generated using GraphPad Prism 5.

PI3K α = PI3K α (Homo sapiens, UniProt P42336); assay: PI3K α kinase assay
PI3K β = PI3K β (Homo sapiens, UniProt P42338); assay: PI3K β kinase assay
PI3K γ = PI3K γ (Homo sapiens, UniProt P48736); assay: PI3K γ kinase assay
PI3K γ, sequence (P48736 whole entry, species assumed): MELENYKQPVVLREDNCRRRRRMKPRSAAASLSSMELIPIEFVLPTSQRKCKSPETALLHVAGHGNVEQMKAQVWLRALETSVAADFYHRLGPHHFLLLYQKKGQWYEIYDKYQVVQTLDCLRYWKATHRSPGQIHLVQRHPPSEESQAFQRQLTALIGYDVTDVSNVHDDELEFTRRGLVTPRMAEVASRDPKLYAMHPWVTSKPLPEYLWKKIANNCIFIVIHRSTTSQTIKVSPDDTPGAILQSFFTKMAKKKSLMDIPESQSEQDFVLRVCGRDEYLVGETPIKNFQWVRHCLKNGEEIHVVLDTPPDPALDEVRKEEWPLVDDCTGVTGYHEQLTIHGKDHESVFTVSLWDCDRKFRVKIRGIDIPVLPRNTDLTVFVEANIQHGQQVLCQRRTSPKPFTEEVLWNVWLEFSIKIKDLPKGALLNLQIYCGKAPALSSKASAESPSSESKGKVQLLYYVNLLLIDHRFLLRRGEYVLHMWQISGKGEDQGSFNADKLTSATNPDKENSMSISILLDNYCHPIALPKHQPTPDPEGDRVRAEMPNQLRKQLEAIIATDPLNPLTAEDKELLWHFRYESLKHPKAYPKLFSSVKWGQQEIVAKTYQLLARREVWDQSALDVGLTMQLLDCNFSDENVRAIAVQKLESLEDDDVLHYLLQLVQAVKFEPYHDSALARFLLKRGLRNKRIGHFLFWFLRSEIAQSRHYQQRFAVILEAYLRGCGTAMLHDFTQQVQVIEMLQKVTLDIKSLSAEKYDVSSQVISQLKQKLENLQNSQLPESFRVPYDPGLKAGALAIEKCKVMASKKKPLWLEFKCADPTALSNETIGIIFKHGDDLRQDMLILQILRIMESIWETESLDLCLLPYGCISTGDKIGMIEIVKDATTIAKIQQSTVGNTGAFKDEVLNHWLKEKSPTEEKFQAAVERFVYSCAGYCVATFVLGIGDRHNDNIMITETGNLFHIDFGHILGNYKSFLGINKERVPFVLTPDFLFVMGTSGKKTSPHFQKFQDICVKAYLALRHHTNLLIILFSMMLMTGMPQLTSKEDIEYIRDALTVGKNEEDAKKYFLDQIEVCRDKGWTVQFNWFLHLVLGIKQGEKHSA

PI3K δ, sequence (O00329 whole entry, species assumed): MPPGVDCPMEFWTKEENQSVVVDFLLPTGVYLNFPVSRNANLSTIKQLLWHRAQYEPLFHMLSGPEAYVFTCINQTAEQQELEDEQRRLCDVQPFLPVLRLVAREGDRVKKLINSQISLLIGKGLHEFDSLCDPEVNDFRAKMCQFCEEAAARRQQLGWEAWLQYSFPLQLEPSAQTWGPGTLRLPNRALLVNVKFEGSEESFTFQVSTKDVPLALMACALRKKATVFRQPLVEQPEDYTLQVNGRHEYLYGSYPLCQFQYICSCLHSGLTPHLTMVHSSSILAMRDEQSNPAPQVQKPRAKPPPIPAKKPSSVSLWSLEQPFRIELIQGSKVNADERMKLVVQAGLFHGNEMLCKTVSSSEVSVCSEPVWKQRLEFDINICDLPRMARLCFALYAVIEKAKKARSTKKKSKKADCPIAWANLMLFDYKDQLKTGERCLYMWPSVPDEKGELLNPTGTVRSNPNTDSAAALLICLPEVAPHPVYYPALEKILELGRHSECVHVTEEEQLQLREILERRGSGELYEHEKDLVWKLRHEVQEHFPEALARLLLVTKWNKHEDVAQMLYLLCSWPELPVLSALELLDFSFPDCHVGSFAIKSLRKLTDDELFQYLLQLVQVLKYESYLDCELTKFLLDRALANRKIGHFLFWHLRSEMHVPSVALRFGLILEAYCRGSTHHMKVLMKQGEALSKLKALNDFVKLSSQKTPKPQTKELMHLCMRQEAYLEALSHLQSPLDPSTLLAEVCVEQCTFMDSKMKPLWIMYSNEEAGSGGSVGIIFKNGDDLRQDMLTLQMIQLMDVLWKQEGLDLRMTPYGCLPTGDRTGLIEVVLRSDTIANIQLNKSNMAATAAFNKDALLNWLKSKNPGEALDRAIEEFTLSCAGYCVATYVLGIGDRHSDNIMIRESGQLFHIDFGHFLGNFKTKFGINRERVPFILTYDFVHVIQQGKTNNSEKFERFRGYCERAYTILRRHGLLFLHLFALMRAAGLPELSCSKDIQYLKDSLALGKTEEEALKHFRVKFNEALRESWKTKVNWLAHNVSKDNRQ
PI3K δ, sequence (P27986 whole entry partner, species assumed): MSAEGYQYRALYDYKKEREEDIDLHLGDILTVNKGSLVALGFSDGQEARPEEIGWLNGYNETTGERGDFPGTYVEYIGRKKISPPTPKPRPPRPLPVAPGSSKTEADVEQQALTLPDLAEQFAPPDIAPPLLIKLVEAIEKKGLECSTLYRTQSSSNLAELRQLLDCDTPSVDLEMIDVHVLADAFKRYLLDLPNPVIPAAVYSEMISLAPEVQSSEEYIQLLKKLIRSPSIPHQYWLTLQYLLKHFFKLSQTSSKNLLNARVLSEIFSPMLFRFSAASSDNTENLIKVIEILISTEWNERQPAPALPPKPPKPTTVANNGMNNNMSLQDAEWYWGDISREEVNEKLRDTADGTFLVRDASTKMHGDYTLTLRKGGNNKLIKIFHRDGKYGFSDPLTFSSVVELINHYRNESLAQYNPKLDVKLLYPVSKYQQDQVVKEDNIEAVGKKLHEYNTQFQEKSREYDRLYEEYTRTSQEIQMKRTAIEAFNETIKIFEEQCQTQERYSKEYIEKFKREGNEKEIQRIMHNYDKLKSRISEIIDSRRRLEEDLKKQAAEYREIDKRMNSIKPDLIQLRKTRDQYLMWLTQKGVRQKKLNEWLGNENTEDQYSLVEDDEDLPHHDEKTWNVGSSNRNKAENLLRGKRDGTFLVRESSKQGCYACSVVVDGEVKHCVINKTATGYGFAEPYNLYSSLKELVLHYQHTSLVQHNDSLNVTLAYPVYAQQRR
PI3K β, sequence (P42338 whole entry, species assumed): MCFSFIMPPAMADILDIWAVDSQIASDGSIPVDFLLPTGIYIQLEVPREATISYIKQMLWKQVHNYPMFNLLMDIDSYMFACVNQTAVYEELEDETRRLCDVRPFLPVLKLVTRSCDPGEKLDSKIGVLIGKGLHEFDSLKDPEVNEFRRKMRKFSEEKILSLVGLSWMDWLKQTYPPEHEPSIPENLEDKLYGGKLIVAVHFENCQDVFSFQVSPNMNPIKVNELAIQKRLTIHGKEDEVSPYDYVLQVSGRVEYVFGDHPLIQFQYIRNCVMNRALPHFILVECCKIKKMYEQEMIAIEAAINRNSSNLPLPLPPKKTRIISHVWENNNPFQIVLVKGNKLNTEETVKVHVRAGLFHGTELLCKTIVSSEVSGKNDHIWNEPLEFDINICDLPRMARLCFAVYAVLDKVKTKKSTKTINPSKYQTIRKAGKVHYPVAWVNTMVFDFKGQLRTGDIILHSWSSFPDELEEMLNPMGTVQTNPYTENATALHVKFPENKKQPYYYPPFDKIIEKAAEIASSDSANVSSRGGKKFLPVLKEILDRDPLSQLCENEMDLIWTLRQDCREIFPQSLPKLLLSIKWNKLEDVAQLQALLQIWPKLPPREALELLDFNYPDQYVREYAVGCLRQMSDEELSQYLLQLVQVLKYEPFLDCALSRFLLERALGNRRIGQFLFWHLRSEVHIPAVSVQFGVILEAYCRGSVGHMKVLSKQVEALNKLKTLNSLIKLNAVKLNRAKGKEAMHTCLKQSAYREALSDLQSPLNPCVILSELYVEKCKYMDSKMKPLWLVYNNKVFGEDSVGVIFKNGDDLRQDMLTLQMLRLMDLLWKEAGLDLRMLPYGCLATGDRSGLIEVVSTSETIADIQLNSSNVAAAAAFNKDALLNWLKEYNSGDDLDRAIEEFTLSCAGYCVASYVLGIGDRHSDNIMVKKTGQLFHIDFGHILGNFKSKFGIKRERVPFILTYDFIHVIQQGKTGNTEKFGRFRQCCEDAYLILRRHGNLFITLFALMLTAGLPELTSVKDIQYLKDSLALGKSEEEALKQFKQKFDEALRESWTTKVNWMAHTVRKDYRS
PI3K β, sequence (P27986 whole entry partner, species assumed): as the sequence (P27986 whole entry partner, species assumed) above
PI3K α, sequence (P42336 whole entry, species assumed): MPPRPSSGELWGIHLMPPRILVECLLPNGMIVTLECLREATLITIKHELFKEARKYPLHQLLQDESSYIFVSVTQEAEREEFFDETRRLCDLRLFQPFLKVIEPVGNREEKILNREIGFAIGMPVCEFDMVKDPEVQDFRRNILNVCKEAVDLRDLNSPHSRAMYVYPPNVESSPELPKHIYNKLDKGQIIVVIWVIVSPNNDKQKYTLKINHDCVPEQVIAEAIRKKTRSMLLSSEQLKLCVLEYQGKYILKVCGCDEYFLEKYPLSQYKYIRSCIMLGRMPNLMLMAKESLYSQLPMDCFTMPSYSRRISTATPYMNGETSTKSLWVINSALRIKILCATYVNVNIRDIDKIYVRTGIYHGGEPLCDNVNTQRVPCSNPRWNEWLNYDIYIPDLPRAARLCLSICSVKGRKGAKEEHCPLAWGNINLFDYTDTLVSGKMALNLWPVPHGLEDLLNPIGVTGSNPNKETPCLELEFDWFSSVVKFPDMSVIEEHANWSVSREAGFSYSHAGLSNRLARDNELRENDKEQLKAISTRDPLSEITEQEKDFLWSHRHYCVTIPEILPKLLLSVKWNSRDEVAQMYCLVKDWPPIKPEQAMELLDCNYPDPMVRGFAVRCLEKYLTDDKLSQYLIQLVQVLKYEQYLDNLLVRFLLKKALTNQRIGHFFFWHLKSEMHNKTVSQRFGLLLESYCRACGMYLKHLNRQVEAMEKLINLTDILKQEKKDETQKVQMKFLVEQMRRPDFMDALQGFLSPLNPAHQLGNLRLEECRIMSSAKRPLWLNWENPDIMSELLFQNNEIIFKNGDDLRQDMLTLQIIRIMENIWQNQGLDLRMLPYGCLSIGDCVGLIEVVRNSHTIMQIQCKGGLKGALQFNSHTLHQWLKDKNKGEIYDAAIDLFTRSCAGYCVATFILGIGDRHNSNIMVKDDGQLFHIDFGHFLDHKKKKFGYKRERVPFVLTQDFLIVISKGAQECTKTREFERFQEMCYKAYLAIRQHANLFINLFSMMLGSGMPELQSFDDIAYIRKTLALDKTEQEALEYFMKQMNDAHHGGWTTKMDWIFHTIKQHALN
PI3K α, sequence (P27986 whole entry partner, species assumed): as the sequence (P27986 whole entry partner, species assumed) above

Compound	IC50 (PI3K δ; Table 1) [nM]	IC50 (mTOR; Table 1, read-out: mTOR IC50) [nM]	IC50 (PI3K α; Table 1) [nM]	IC50 (PI3K β; Table 1) [nM]	IC50 (PI3K δ; Table 2) [nM]	IC50 (mTOR; Table 2, read-out: mTORC IC50) [nM]	IC50 (PI3K γ; Table 2) [nM]	IC50 (PI3K α; Table 2) [nM]	IC50 (PI3K β; Table 2) [nM]	IC50 (PI3K γ; Table 1) [nM]
COC(=O)Nc1noc2ccc(-c3nn(C(C)C)c4ncnc(N)c34)cc12 [Compound 19]	> 10000	< 10000	> 10000	> 10000	–	–	–	–	–	–
COC(=O)Nc1noc2cc(-c3nn(C(C)C)c4ncnc(N)c34)ccc12 [Compound 20]	< 10000	< 10000	< 10000	> 10000	–	–	–	–	–	–
CC(C)n1nc(-c2cc3ccc(O)cc3[nH]2)c2c(N)ncnc21 [Compound 21]	–	–	–	–	100 to 500	25 to 50	100 to 500	100 to 500	> 500	–
Cc1nc(N)c2c(-c3ccc4oc(N)nc4c3)nn(C(C)C)c2n1 [Compound 21]	> 10000	< 1000	> 10000	> 10000	–	–	–	–	–	> 10000
CC(CO)n1nc(-c2ccc3oc(N)nc3c2)c2c(N)ncnc21 (centres unmarked) [Compound 23]	< 10000	< 100	< 10000	> 10000	–	–	–	–	–	< 10000
Nc1nc2cc(-c3nn(C4CC(=O)C4)c4ncnc(N)c34)ccc2o1 [Compound 25]	< 1000	–	< 1000	< 10000	–	–	–	–	–	< 100
CC(C)(CO)n1nc(-c2ccc3oc(N)nc3c2)c2c(N)ncnc21 [Compound 27]	< 1000	–	< 10000	> 10000	–	–	–	–	–	> 10000
CCOC(=O)Cn1nc(-c2cc3cc(O)ccc3[nH]2)c2c(N)ncnc21 [Compound 28]	–	–	–	–	> 500	100 to 500	–	> 500	> 500	–
CC(=O)N1CCC(n2nc(-c3cc4cc(O)ccc4[nH]3)c3c(N)ncnc32)CC1 [Compound 30]	–	–	–	–	> 500	10 to 25	–	> 500	> 500	–
Nc1ncnc2c1c(-c1cc3cc(O)ccc3[nH]1)nn2C1CCN(C(=O)C2CC2)CC1 [Compound 31]	–	–	–	–	100 to 500	10 to 25	–	> 500	> 500	–
CC(C)n1nc(-c2cc3c(O)cccc3[nH]2)c2c(N)ncnc21 [Compound 37]	–	–	–	–	100 to 500	> 500	100 to 500	100 to 500	–	–
Nc1ncnc2c1c(-c1cc3cc(O)ccc3[nH]1)nn2Cc1cccnc1 [Compound 38]	–	–	–	–	> 500	100 to 500	> 500	> 500	–	–
CC(C)n1nc(-c2cc3c(Cl)ccc(O)c3[nH]2)c2c(N)ncnc21 [Compound 39]	–	–	–	–	> 500	5 to 10	> 500	> 500	–	–
COCCn1nc(-c2cc3cc(O)ccc3[nH]2)c2c(N)ncnc21 [Compound 40]	–	–	–	–	> 500	50 to 100	> 500	> 500	–	–
Nc1ncnc2c1c(-c1cc3cccc(O)c3[nH]1)nn2C1CCN(C(=O)C2CC2)CC1 [Compound 41]	–	–	–	–	> 500	5 to 10	25 to 50	> 500	> 500	–
Nc1ncnc2c1c(-c1cc3cc(O)ccc3[nH]1)nn2C1CCOCC1 [Compound 42]	–	–	–	–	50 to 100	< 5	–	> 500	> 500	–
CNC(=O)CCn1nc(-c2cc3cc(O)ccc3[nH]2)c2c(N)ncnc21 [Compound 43]	–	–	–	–	> 500	> 500	–	> 500	> 500	–
Cc1nccn1CCn1nc(-c2cc3cc(O)ccc3[nH]2)c2c(N)ncnc21 [Compound 44]	–	–	–	–	> 500	50 to 100	–	> 500	> 500	–

Compound	IC50 (PI3K δ; Table 1) [nM]	IC50 (mTOR; Table 1, read-out: mTOR IC50) [nM]	IC50 (PI3K α; Table 1) [nM]	IC50 (PI3K β; Table 1) [nM]	IC50 (PI3K δ; Table 2) [nM]	IC50 (mTOR; Table 2, read-out: mTORC IC50) [nM]	IC50 (PI3K γ; Table 2) [nM]	IC50 (PI3K α; Table 2) [nM]	IC50 (PI3K β; Table 2) [nM]	IC50 (PI3K γ; Table 1) [nM]
Nc1ncnc2c1c(-c1cc3c(Cl)cccc3[nH]1)nn2C1CCOCC1 [Compound 48]	–	–	–	–	> 500	25 to 50	> 500	> 500	> 500	–
Nc1ncnc2c1c(-c1cc3cc(O)ccc3[nH]1)nn2C1CC(N2CCOCC2)C1 (centres unmarked) [Compound 49]	–	–	–	–	100 to 500	5 to 10	100 to 500	> 500	> 500	–
CC(C)n1nc(-c2cc3cccc(Cl)c3[nH]2)c2c(N)ncnc21 [Compound 50]	–	–	–	–	100 to 500	25 to 50	100 to 500	> 500	> 500	–
Nc1ncnc2c1c(-c1cc3cccc(Cl)c3[nH]1)nn2C1CCOCC1 [Compound 51]	–	–	–	–	100 to 500	25 to 50	100 to 500	> 500	> 500	–
CN1CCN(C2CC(n3nc(-c4cc5cc(O)ccc5[nH]4)c4c(N)ncnc43)C2)CC1 (centres unmarked) [Compound 52]	–	–	–	–	100 to 500	100 to 500	> 500	> 500	> 500	–
Nc1ncnc2c1c(-c1cc3cc(O)ccc3[nH]1)nn2C1CC(=O)C1 [Compound 53]	–	–	–	–	–	50 to 100	> 500	> 500	> 500	–
Nc1ncnc2c1c(-c1cc3cc(O)ccc3[nH]1)nn2C1CC(O)C1 (centres unmarked) [Compound 54]	–	–	–	–	–	10 to 25	> 500	> 500	> 500	–
CC(C)N1CCC(n2nc(-c3cc4cc(O)ccc4[nH]3)c3c(N)ncnc32)CC1 [Compound 55]	–	–	–	–	–	100 to 500	> 500	> 500	> 500	–
CC(C)N1CCC(n2nc(-c3cc4cc(O)cc(Cl)c4[nH]3)c3c(N)ncnc32)CC1 [Compound 56]	–	–	–	–	–	> 500	> 500	> 500	> 500	–
Nc1ncnc2c1c(-c1cc3cc(O)ccc3[nH]1)nn2C1CCC(N2CCOCC2)CC1 (centres unmarked) [Compound 57]	–	–	–	–	–	10 to 25	> 500	> 500	> 500	–
CN1CCN(C2CCC(n3nc(-c4cc5cc(O)ccc5[nH]4)c4c(N)ncnc43)CC2)CC1 (centres unmarked) [Compound 58]	–	–	–	–	–	> 500	> 500	> 500	> 500	–
COc1ccc2cc(-c3nn(C4CCOCC4)c4ncnc(N)c34)[nH]c2c1 [Compound 59]	–	–	–	–	–	> 500	> 500	> 500	> 500	–
Nc1ncnc2c1c(-c1cc3ccc(O)cc3[nH]1)nn2C1CCOCC1 [Compound 60]	–	–	–	–	–	50 to 100	50 to 100	> 500	> 500	–
COc1ccc(Cl)c2cc(-c3nn(C4CCOCC4)c4ncnc(N)c34)[nH]c12 [Compound 61]	–	–	–	–	> 500	10 to 25	> 500	> 500	> 500	–
Nc1ncnc2c1c(-c1cc3cccc(O)c3[nH]1)nn2C1CCOCC1 [Compound 62]	–	–	–	–	50 to 100	< 5	> 500	> 500	> 500	–
COc1cccc2cc(-c3nn(C4CCOCC4)c4ncnc(N)c34)[nH]c12 [Compound 63]	–	–	–	–	10 to 25	< 5	10 to 25	100 to 500	> 500	–
CC(C)N1CCC(n2nc(-c3cc4cccc(O)c4[nH]3)c3c(N)ncnc32)CC1 [Compound 64]	–	–	–	–	100 to 500	10 to 25	100 to 500	> 500	> 500	–
CC(=O)N1CCC(n2nc(-c3cc4ccc(O)cc4[nH]3)c3c(N)ncnc32)CC1 [Compound 65]	–	–	–	–	10 to 25	5 to 10	10 to 25	25 to 50	> 500	–
